# Source: patent US20230146239A1 (THE SCRIPPS RESEARCH INSTITUTE, priority 2020, published 2023)
# Like-named read-outs stand apart in the source and are kept apart here.
# Tests used:
# VanA E. faecium (TX2465) = test: In vitro antimicrobial microdilution assay (MIC); format: cell-based, Enterococcus faecium
# [1] = tested on: VanA E. faecium (ATCC BAA-2317); test: In vitro antimicrobial microdilution assay (MIC); format: cell-based, Enterococcus faecium
# [2] = tested on: VanA E. faecalis (ATCC BAA-2573); test: In vitro antimicrobial microdilution assay (MIC); format: cell-based, Enterococcus faecalis
# [3] = tested on: VanA E. faecalis (BM 4166); test: In vitro antimicrobial microdilution assay (MIC); format: cell-based, Enterococcus faecalis
# [4] = tested on: VanA VRE E. faecalis BM 4166 and E. faecium ATCC BAA-2317; format: cell-based, Enterococcus faecalis, Enterococcus faecium; settings: 10 μM added at 5 minutes
# Description: The above bacterial solution was subjected to a subculture to obtain fresh mid-log phase bacterial cells (incubation time=6 hours). The bacterial suspension was diluted to a total volume of 7 mL with OD600=0.6.
# After the cultured bacteria were harvested (3000 rpm, 4° C., 20 minutes), the white bacterial precipitate was washed and resuspended in 5 mM glucose and 5 mM HEPES buffer (1:1, 5.00 mL, pH=7.2).
# [5] = tested on: VanA VRE E. faecalis (BM 4166); test: Impact of added LTA, phosphate, POPE on antimicrobial activity (MIC); format: cell-based, Enterococcus faecalis
# Description: When NaH2PO4 or POPE was used instead of LTA, 10% brain-heart infusion broth containing 0.002% Tween®-80 with 100 μg/mL NaH2PO4 or 100 μg/mL POPE was used as the culture medium used for serial dilution. When additional G3 (H2N^+(CH2)3NHC(NH2)═NH2^+.2TFA) or Mg^2+ was used, 10% brain-heart infusion broth containing 0.002% Tween®-80 with 100 μg/mL G3 or 100 μg/mL MgCl2 and 100 μg/mL lipoteichoic acid was used as the culture medium for serial dilution of study group, 10% brain-heart infusion broth containing 0.002% Tween®-80 with 100 μg/mL G3 was used as the culture medium for serial dilution of control group.
# [6] = tested on: two VanA VRE strains (E. faecalis BM4166, E. faecium ATCC BAA-2317); test: Resistance development assay, durability (serial passaging at 0.5×MIC); format: cell-based, Enterococcus faecalis, Enterococcus faecium; settings: 50 passages
# Description: The lowest concentration of antibiotic (in μg/mL) capable of eliminating cell growth in the wells is the reported MIC value.
# A new MIC assay was performed with the same protocol above. This process was repeated for 50 passages, and the fold increase in MIC was determined after each passage.
SMILES,"MIC, VanA E. faecium TX2465 (VanA E. faecium (TX2465)) [µg/mL]","MIC, VanA E. faecium ATCC BAA-2317 [1] [µg/mL]","MIC, VanA E. faecalis ATCC BAA-2573 [2] [µg/mL]","MIC, VanA E. faecalis BM 4166 [3] [µg/mL]",other results
"CN[C@H](CC(C)C)C(=O)N[C@H]1C(=O)N[C@@H](CC(N)=O)C(=O)N[C@H]2C(=O)NC3C(=O)N[C@H](C(=O)N[C@H](C(=O)NCCNC(=N)N)c4cc(O)cc(O)c4-c4cc3ccc4O)[C@H](O)c3ccc(c(Cl)c3)Oc3cc2cc(c3OC2OC(CO)C(O)[C@H](O)[C@@H]2O[C@H]2CC(C)(N)[C@H](O)[C@H](C)O2)Oc2ccc(cc2Cl)[C@H]1O (stereo partly shown) [Compound 6, G2-vancomycin]",16,4,8,16,–
"CN[C@H](CC(C)C)C(=O)N[C@H]1C(=O)N[C@@H](CC(N)=O)C(=O)N[C@H]2C(=O)NC3C(=O)N[C@H](C(=O)N[C@H](C(=O)NCCCCNC(=N)N)c4cc(O)cc(O)c4-c4cc3ccc4O)[C@H](O)c3ccc(c(Cl)c3)Oc3cc2cc(c3OC2OC(CO)C(O)[C@H](O)[C@@H]2O[C@H]2CC(C)(N)[C@H](O)[C@H](C)O2)Oc2ccc(cc2Cl)[C@H]1O (stereo partly shown) [Compound 7, G4-vancomycin]",16,4,4,16,–
"CN[C@H](CC(C)C)C(=O)N[C@H]1C(=O)N[C@@H](CC(N)=O)C(=O)N[C@H]2C(=O)NC3C(=O)N[C@H](C(=O)N[C@H](C(=O)NCCCCCCNC(=N)N)c4cc(O)cc(O)c4-c4cc3ccc4O)[C@H](O)c3ccc(c(Cl)c3)Oc3cc2cc(c3OC2OC(CO)C(O)[C@H](O)[C@@H]2O[C@H]2CC(C)(N)[C@H](O)[C@H](C)O2)Oc2ccc(cc2Cl)[C@H]1O (stereo partly shown) [Compound 8, G6-vancomycin]",16,4,4,16,–
"CN[C@H](CC(C)C)C(=O)N[C@H]1C(=O)N[C@@H](CC(N)=O)C(=O)N[C@H]2C(=O)NC3C(=O)N[C@H](C(=O)N[C@H](C(=O)N[C@@H](CCCNC(=N)N)C(=O)OC)c4cc(O)cc(O)c4-c4cc3ccc4O)[C@H](O)c3ccc(c(Cl)c3)Oc3cc2cc(c3OC2OC(CO)C(O)[C@H](O)[C@@H]2O[C@H]2CC(C)(N)[C@H](O)[C@H](C)O2)Oc2ccc(cc2Cl)[C@H]1O (stereo partly shown) [Compound 10, Arg(OMe)-vancomycin]",8,8,4,8,–
"CN[C@H](CC(C)C)C(=O)N[C@H]1C(=O)N[C@@H](CC(N)=O)C(=O)N[C@H]2C(=O)N[C@H]3C(=O)N[C@H](C(=O)N[C@H](C(=O)N[C@@H](CCCNC(=N)N)C(=O)O)c4cc(O)cc(O)c4-c4cc3ccc4O)[C@H](O)c3ccc(c(Cl)c3)Oc3cc2cc(c3OC2OC(CO)C(O)[C@H](O)C2O[C@H]2CC(C)(N)[C@H](O)[C@H](C)O2)Oc2ccc(cc2Cl)[C@H]1O (stereo partly shown) [Compound 11, Arg-vancomycin]",–,–,–,–,"MIC ([1]; Enterococcus faecium, ATCCBAA2317, read-out: MIC, VanA E. faecium ATCC BAA-2317): 63 µg/mL; MIC ([3]; Enterococcus faecalis, read-out: MIC, VanA E. faecalis BM 4166): 63 µg/mL"
"CN[C@H](CC(C)C)C(=O)N[C@H]1C(=O)N[C@@H](CC(N)=O)C(=O)N[C@H]2C(=O)NC3C(=O)N[C@H](C(=O)N[C@H](C(=O)N[C@@H](CCCNC(=N)N)C(N)=O)c4cc(O)cc(O)c4-c4cc3ccc4O)[C@H](O)c3ccc(c(Cl)c3)Oc3cc2cc(c3OC2OC(CO)C(O)[C@H](O)[C@@H]2O[C@H]2CC(C)(N)[C@H](O)[C@H](C)O2)Oc2ccc(cc2Cl)[C@H]1O (stereo partly shown) [Compound 12, Arg(NH2)-vancomycin]",8,4,4,16,–
"CN[C@H](CC(C)C)C(=O)N[C@H]1C(=O)N[C@@H](CC(N)=O)C(=O)N[C@H]2C(=O)NC3C(=O)N[C@H](C(=O)N[C@H](C(=O)N[C@@H](CCCNC(N)=O)C(=O)OC)c4cc(O)cc(O)c4-c4cc3ccc4O)[C@H](O)c3ccc(c(Cl)c3)Oc3cc2cc(c3OC2OC(CO)C(O)[C@H](O)[C@@H]2O[C@H]2CC(C)(N)[C@H](O)[C@H](C)O2)Oc2ccc(cc2Cl)[C@H]1O (stereo partly shown) [Compound 13, Cit(OMe)-vancomycin]",63,31,16,63,–
"CN[C@H](CC(C)C)C(=O)N[C@H]1C(=O)N[C@@H](CC(N)=O)C(=O)N[C@H]2C(=O)NC3C(=O)N[C@H](C(=O)N[C@H](C(=O)NC(CNC(=N)N)CNC(=N)N)c4cc(O)cc(O)c4-c4cc3ccc4O)[C@H](O)c3ccc(c(Cl)c3)Oc3cc2cc(c3OC2OC(CO)C(O)[C@H](O)[C@@H]2O[C@H]2CC(C)(N)[C@H](O)[C@H](C)O2)Oc2ccc(cc2Cl)[C@H]1O (stereo partly shown) [Compound 14, DiG-vancomycin]",4,1,2,8,–
"CN[C@H](CC(C)C)C(=O)N[C@H]1C(=O)N[C@@H](CC(N)=O)C(=O)N[C@H]2C(=O)N[C@H]3C(=O)N[C@H](C(=O)N[C@H](C(=O)N[C@@H](CCCNC(=N)N)C(=O)O)c4cc(O)cc(O)c4-c4cc3ccc4O)[C@H](O)c3ccc(c(Cl)c3)Oc3cc2cc(c3OC2OC(CO)C(O)[C@H](O)C2O[C@H]2CC(C)(NCc3ccc(-c4ccc(Cl)cc4)cc3)[C@H](O)[C@H](C)O2)Oc2ccc(cc2Cl)[C@H]1O (stereo partly shown) [Compound 21, Arg-CBP-vancomycin]",–,–,–,–,bacterial cell membrane permeabilization [4]: reduced bacteria cell permeabilization
"CN[C@H](CC(C)C)C(=O)N[C@H]1C(=O)N[C@@H](CC(N)=O)C(=O)N[C@H]2C(=O)N[C@H]3C(=O)N[C@H](C(=O)N[C@H](C(=O)N[C@@H](CCCNC(N)=O)C(=O)OC)c4cc(O)cc(O)c4-c4cc3ccc4O)[C@H](O)c3ccc(c(Cl)c3)Oc3cc2cc(c3OC2OC(CO)C(O)[C@H](O)C2O[C@H]2CC(C)(NCc3ccc(-c4ccc(Cl)cc4)cc3)[C@H](O)[C@H](C)O2)Oc2ccc(cc2Cl)[C@H]1O (stereo partly shown) [Compound 23, Cit(OMe)-CBP-vancomycin]",–,–,–,–,bacterial cell membrane permeabilization [4]: reduced bacteria cell permeabilization
"CN[C@H](CC(C)C)C(=O)N[C@H]1C(=O)N[C@@H](CC(N)=O)C(=O)N[C@H]2C(=O)N[C@H]3C(=O)N[C@H](C(=O)N[C@H](C(=O)N[C@@H](CCCNC(=N)N)C(=O)OC)c4cc(O)c(CN[C@@H](CCCNC(=N)N)C(=O)OC)c(O)c4-c4cc3ccc4O)[C@H](O)c3ccc(c(Cl)c3)Oc3cc2cc(c3OC2OC(CO)C(O)[C@H](O)C2O[C@H]2CC(C)(N)[C@H](O)[C@H](C)O2)Oc2ccc(cc2Cl)[C@H]1O (stereo partly shown) [Compound 28, Arg(OMe)-Arg(OMe)^Ar-vancomycin]",–,–,–,–,"MIC (VanA E. faecium (TX2465); Enterococcus faecium, read-out: MIC, VanA E. faecium TX2465): 8 µg/mL; MIC ([1]; Enterococcus faecium, ATCCBAA2317; read-out: MIC, VanA E. faecium ATCC BAA-2317): 2 µg/mL; MIC ([2]; Enterococcus faecalis, ATCCBAA2573, read-out: MIC, VanA E. faecalis ATCC BAA-2573): 1 µg/mL; MIC ([3]; Enterococcus faecalis; read-out: MIC, VanA E. faecalis BM 4166): 8 µg/mL"
"N=C(N)NCCCN [G3^+, H2N(CH2)3NHC(═NH2)NH2^+]",–,–,–,–,"MIC ([5]; E. faecalis BM 4166, POPE 100 μg/mL, read-out: MIC, +POPE): > 800 µg/mL; MIC ([5]; E. faecalis BM 4166, read-out: MIC, −POPE): > 800 µg/mL"
CCCCCCCCCC(=O)N[C@@H](Cc1c[nH]c2ccccc12)C(=O)N[C@H](CC(N)=O)C(=O)N[C@@H](CC(=O)O)C(=O)N[C@@H]1C(=O)NCC(=O)N[C@@H](CCCN)C(=O)N[C@@H](CC(=O)O)C(=O)N[C@H](C)C(=O)N[C@@H](CC(=O)O)C(=O)NCC(=O)N[C@H](CO)C(=O)N[C@@H]([C@H](C)CC(=O)O)C(=O)N[C@@H](CC(=O)c2ccccc2N)C(=O)O[C@@H]1C [daptomycin],–,–,–,–,resistance acquisition on serial passaging [6]: raise resistance more rapidly and in a more pronounced manner
CC(=O)NC[C@H]1CN(c2ccc(N3CCOCC3)c(F)c2)C(=O)O1 [linezolid],–,–,–,–,resistance acquisition on serial passaging [6]: raise resistance more rapidly and in a more pronounced manner
